According to publication PMC7561186, “Rational design of balanced dual-targeting antibiotics with limited resistance” (PLoS Biology, 2020):
Values after ≈ are worked out from the molar mass of the structure shown. Values joined by “and” are separate entries in the source; they are usually repeats but may differ in a detail not shown here. Identical values can stand only once. Like-named read-outs stand apart in the source and are kept apart here.

Legend:
MCF-7 cells = conditions: LDH assay
Procedure: (§1) Cytotoxicity of compounds on HepG2 and MCF-7 mammalian cell lines was determined by using a standard LDH assay. Briefly, HepG2 and MCF-7 cells were cultured in Eagle’s MEM medium (from Gibco) supplemented with 2 mM L-glutamine (Sigma), 100 U/mL penicillin (Sigma), and 100 μg/mL streptomycin (Sigma), and 10% FBS (Gibco) at 37 °C and under 5% CO2. Next, LDH assays were performed according to manufacturer instructions (Thermo Fisher Scientific, Massachusetts, USA). By using a CyQUANT LDH Cytotoxicity Assay Kit. Firstly, the cells were seeded in 96-well microtiter plates at 10^5 cells/mL (100 μL/well) and allowed to attach overnight. […] Lysis buffer (10 μL, Thermo Fisher Scientific) was then added to the maximal LDH activity control wells and incubated additional 45 minutes. The cell culture supernatant (50 μL) was then transferred to a new 96-well plate and mixed with 50 μL of the reaction mixture. After 30 minutes on room temperature, reactions were stopped with 50 μL of the Stop solution. Absorbance (490 nm and 680 nm) was measured with the automatic microplate reader Synergy 4 Hybrid Microplate Reader (BioTek, VT, USA). All experiments were performed in triplicates and repeated 3 times. Statistical significance (P < 0.05) was calculated with 2-tailed Welch’s t-test between treated groups and DMSO. The percentage of cytotoxicity was determined according to the following equation: %Cytotoxicity=(CompoundtreatedLDHactivity-SpontaneousLDHactivity/MaximumLDHactivity-SpontaneousLDHactivity)*100

in vitro = conditions: human
Procedure: as §1

[1] = test system: S. aureus ATCC 700699 and S. aureus ATCC 43300; assay: Spontaneous frequency-of-resistance assay; format: cell-based
Procedure: Prior to plating, bacteria were grown overnight in MHBII medium at 37 °C, 250 rpm, collected by centrifugation, and washed once in equal volumes of MHBII broth. From this concentrated cell suspension (250 μL), approximately 10^10 cells were then plated to each MHBII agarose plates. […] All experiments were performed in at least 3 replicates. Plates were grown at 37 °C for 72 hours. Total CFUs were determined simultaneously in each experiment by plating appropriate dilutions to antibiotic-free MHBII agar plates. Finally, resistance frequencies for each strain were calculated by dividing the number of colonies formed after a 72-hour incubation at 37 °C by the initial viable cell count.

[2] = test system: human hERG potassium ion channel
Procedure: Inhibition of the human hERG cardiac K+ ion channel was determined by Eurofins Panlabs (St. Charles, MO, USA) by using QPatch automated whole-cell patch-clamp electrophysiology, as described previously. […] During measurements, after whole-cell patch configuration was achieved, the cells were held at −80 mV. Next, a 500-millisecond pulse to −40 mV was delivered to measure the leaking current, which was then subtracted from the tail current’s readout. Then the cell was depolarized to +40 mV for 500 milliseconds and then to −80 mV over a 100-millisecond ramp to elicit the hERG tail current. This workflow was repeated once in every 8 seconds to monitor the current amplitude. The parameters measured during each test were the maximum tail current evoked on stepping to 40 mV and ramping back to −80 mV from the test pulse. All data were filtered for seal quality, seal drop, and current amplitude. The peak current amplitude was calculated before and after compound addition, and the amount of inhibition was assessed by dividing the test compound’s current amplitude by the control’s current amplitude. During our tests, the control was the mean hERG current amplitude collected 15 seconds at the end of each measurement, and the test compound was the mean hERG current amplitude collected in the presence of test compound at the given concentration.

[3] = test system: S. aureus clinical isolates; assay: microbe, parasite or virus in culture; format: cell-based

Cc1[nH]c(C(=O)Nc2nc3c(OCc4ccccc4)cc(C(=O)O)cc3s2)c(Cl)c1Cl [ULD2]
Max. % inhibition at 100 µM (MCF-7 cells): Max. % inhibition at 100 µM: 8.43% | IC50 (in vitro): > 100 µM | resistant mutants emerged ([1]; 4×10^12 S. aureus ATCC 700699 (VISA) cells, 4 times the wild-type MIC, in words): no ULD2 resistant mutants have emerged | mutant prevention concentration (MPC) ([1]; S. aureus ATCC 700699 (VISA), estimate): 0.08 µg/mL | Spontaneous frequency-of-resistance (replicates) ([1]; Staphylococcus aureus (MRSA) ATCC 43300, 2xMIC): 1.00E-12 and 1.529e-10 and 1.99e-10 and 7.692e-11 and 9.00E-10 and 1.80E-09 and 1.43E-10 | Spontaneous frequency-of-resistance (replicates) ([1]; Staphylococcus aureus (MRSA) ATCC 43300, 4xMIC): 5.00E-11 and 1.67E-10 and 7.14E-11 and 1.00E-12 | Spontaneous frequency-of-resistance (replicates) ([1]; Staphylococcus aureus (MRSA) ATCC 43300, 8xMIC): 1.00E-12 | Spontaneous frequency-of-resistance (replicates) ([1]; Staphylococcus aureus (VISA) ATCC 700699, 2xMIC): 1.00E-12 and 8.77E-11 | Spontaneous frequency-of-resistance (replicates) ([1]; Staphylococcus aureus (VISA) ATCC 700699, 4xMIC): 1.00E-12 | Spontaneous frequency-of-resistance (replicates) ([1]; Staphylococcus aureus (VISA) ATCC 700699, 8xMIC): 1.00E-12 | inhibitory effect on human hERG ion channels ([2]; 150 μM, in words): No statistically significant inhibitory effect | Significant (hERG inhibition) ([2]; hERG, 150 µM): No (Only results showing an inhibition higher than 50% are considered to represent significant effects of the tested compounds) | Normalized inhibition (%) ([2]; hERG, 150 µM, n = 8): 27% | MIC ([3]; S. aureus ATCC 29213, MSSA / VSSA, test date 2018-10-25 (three repeat lines)): 0.5 mg/L (≈ 1.05 µM) | MIC ([3]; Staphylococcus aureus, ATCC 29213 / MSSA, S. aureus ATCC 29213, MSSA / VSSA, test date 2018-10-25 (three repeat lines), read-out: MIC): 0.25 mg/L (≈ 0.525 µM) | MIC ([3]; Staphylococcus aureus, ATCC 29213 / MSSA, S. aureus ATCC 29213, MSSA / VSSA, test date 2018-11-07, read-out: MIC): 0.25 mg/L (≈ 0.525 µM) | MIC ([3]; Staphylococcus aureus, MRSA / NRS 3 / VISA, S. aureus IHMA 1308243, NRS3, MRSA / VISA, read-out: MIC): 0.5 mg/L (≈ 1.05 µM) | MIC ([3]; Staphylococcus aureus, MRSA / NRS 4 / VISA, S. aureus IHMA 649380, NRS4, MRSA / VISA, read-out: MIC): 0.25 mg/L (≈ 0.525 µM) | MIC ([3]; Staphylococcus aureus, MRSA / NRS 18 / VISA, S. aureus IHMA 649386, NRS18, MRSA / VISA, read-out: MIC): 0.5 mg/L (≈ 1.05 µM) | MIC ([3]; Staphylococcus aureus, MRSA / NRS 19 / VISA, S. aureus IHMA 649387, NRS19, MRSA / VISA, read-out: MIC): 0.25 mg/L (≈ 0.525 µM) | MIC ([3]; Staphylococcus aureus, MRSA / NRS 21 / VISA, S. aureus IHMA 649388, NRS21, MRSA / VISA, read-out: MIC): 0.25 mg/L (≈ 0.525 µM) | MIC ([3]; Staphylococcus aureus, MRSA / NRS 22 / USA600 / VISA, S. aureus IHMA 649389, NRS22, MRSA / VISA, USA600, read-out: MIC): 0.5 mg/L (≈ 1.05 µM) | MIC ([3]; Staphylococcus aureus, MRSA / NRS 23 / VISA, S. aureus IHMA 649390, NRS23, MRSA / VISA, read-out: MIC): 0.5 mg/L (≈ 1.05 µM) | MIC ([3]; Staphylococcus aureus, MRSA / NRS 24 / VISA, S. aureus IHMA 649391, NRS24, MRSA / VISA, read-out: MIC): 0.25 mg/L (≈ 0.525 µM) | MIC ([3]; Staphylococcus aureus, MRSA / NRS 26, S. aureus IHMA 649392, NRS26, MRSA / VSSA, read-out: MIC): 0.5 mg/L (≈ 1.05 µM) | MIC ([3]; Staphylococcus aureus, MRSA / NRS 27 / VISA, S. aureus IHMA 1308248, NRS27, MRSA / VISA, read-out: MIC): 0.5 mg/L (≈ 1.05 µM) | MIC ([3]; Staphylococcus aureus, MRSA / NRS 29 / VISA, S. aureus IHMA 1308250, NRS29, MRSA / VISA, read-out: MIC): 0.25 mg/L (≈ 0.525 µM) | MIC ([3]; Staphylococcus aureus, MRSA / NRS 37 / VISA, S. aureus IHMA 1308251, NRS37, MRSA / VISA, read-out: MIC): 0.5 mg/L (≈ 1.05 µM) | MIC ([3]; Staphylococcus aureus, MRSA / NRS 54, S. aureus IHMA 1308253, NRS54, MRSA / VSSA* (*Expected VAN intermediate, confirmed VAN susceptible twice), test date 2018-11-07, read-out: MIC): 0.12 mg/L (≈ 0.252 µM) | MIC ([3]; Staphylococcus aureus, MRSA / NRS 56 / VISA, S. aureus IHMA 1308254, NRS56, MRSA / VISA, read-out: MIC): 0.25 mg/L (≈ 0.525 µM) | MIC ([3]; Staphylococcus aureus, MRSA / USA100 / VRSA, S. aureus IHMA 672230, VRS1, MRSA / VRSA, USA100, read-out: MIC): 0.25 mg/L (≈ 0.525 µM) | MIC ([3]; Staphylococcus aureus, MRSA / USA100 / VRSA, S. aureus IHMA 672231, VRS2, MRSA / VRSA, USA100, read-out: MIC): 0.25 mg/L (≈ 0.525 µM) | MIC ([3]; Staphylococcus aureus, MRSA / USA100 / VRSA, S. aureus IHMA 672234, VRS4, MRSA / VRSA, USA100, read-out: MIC): 0.25 mg/L (≈ 0.525 µM) | MIC ([3]; Staphylococcus aureus, MRSA / USA100 / VRSA, S. aureus IHMA 672235, VRS5, MRSA / VRSA, USA100, read-out: MIC): 0.25 mg/L (≈ 0.525 µM) | MIC ([3]; Staphylococcus aureus, MRSA / USA100 / VRSA, S. aureus IHMA 672237, VRS7, MRSA / VRSA, USA100, read-out: MIC): 0.25 mg/L (≈ 0.525 µM) | MIC ([3]; Staphylococcus aureus, MRSA / USA100 / VRSA, S. aureus IHMA 672238, VRS8, MRSA / VRSA, USA100, read-out: MIC): 0.25 mg/L (≈ 0.525 µM) | MIC ([3]; Staphylococcus aureus, MRSA / USA100 / VRSA, S. aureus IHMA 672239, VRS9, MRSA / VRSA, USA100, read-out: MIC): 0.25 mg/L (≈ 0.525 µM) | MIC ([3]; Staphylococcus aureus, MRSA / USA100 / VRSA, S. aureus IHMA 1308256, VRS10, MRSA / VRSA, USA100, read-out: MIC): 0.5 mg/L (≈ 1.05 µM) | MIC ([3]; Staphylococcus aureus, MRSA / USA100 / VRSA, S. aureus IHMA 1308258, VRS11b, MRSA / VRSA, USA100, read-out: MIC): 0.25 mg/L (≈ 0.525 µM) | MIC ([3]; Staphylococcus aureus, MRSA / USA800 / VRSA, S. aureus IHMA 672233, VRS3b, MRSA / VRSA, USA800, read-out: MIC): 0.06 mg/L (≈ 0.126 µM) | MIC ([3]; Staphylococcus aureus, MRSA / VISA / VRSA, all isolates of the panel (MRSA, VISA, VRSA), read-out: MIC against all tested S. aureus clinical isolates): ≤ 1 mg/L | MIC ([3]; Staphylococcus aureus, MRSA, S. aureus IHMA 1569509, MRSA / VSSA, read-out: MIC): 0.12 mg/L (≈ 0.252 µM) | MIC ([3]; Staphylococcus aureus, MRSA, S. aureus IHMA 1575268, MRSA / VSSA, read-out: MIC): 0.25 mg/L (≈ 0.525 µM) | MIC ([3]; Staphylococcus aureus, MRSA, S. aureus IHMA 1575629, MRSA / VSSA, read-out: MIC): 0.25 mg/L (≈ 0.525 µM) | MIC ([3]; Staphylococcus aureus, MRSA, S. aureus IHMA 1577820, MRSA / VSSA, read-out: MIC): 0.5 mg/L (≈ 1.05 µM) | MIC ([3]; Staphylococcus aureus, MRSA, S. aureus IHMA 1580300, MRSA / VSSA, read-out: MIC): 0.12 mg/L (≈ 0.252 µM) | MIC ([3]; Staphylococcus aureus, MRSA, S. aureus IHMA 1580940, MRSA / VSSA, read-out: MIC): 0.5 mg/L (≈ 1.05 µM) | MIC ([3]; Staphylococcus aureus, MRSA, S. aureus IHMA 1582100, MRSA / VSSA, read-out: MIC): 0.25 mg/L (≈ 0.525 µM) | MIC ([3]; Staphylococcus aureus, MRSA, S. aureus IHMA 1583795, MRSA / VSSA, read-out: MIC): 1 mg/L (≈ 2.1 µM) | MIC ([3]; Staphylococcus aureus, MRSA, S. aureus IHMA 1584223, MRSA / VSSA, read-out: MIC): 0.5 mg/L (≈ 1.05 µM) | MIC ([3]; Staphylococcus aureus, MRSA, S. aureus IHMA 1585316, MRSA / VSSA, read-out: MIC): 0.25 mg/L (≈ 0.525 µM) | MIC ([3]; Staphylococcus aureus, MRSA, S. aureus IHMA 1586780, MRSA / VSSA, read-out: MIC): 0.25 mg/L (≈ 0.525 µM) | MIC ([3]; Staphylococcus aureus, MRSA, S. aureus IHMA 1587322, MRSA / VSSA, read-out: MIC): 0.25 mg/L (≈ 0.525 µM) | MIC ([3]; Staphylococcus aureus, MRSA, S. aureus IHMA 1588127, MRSA / VSSA, read-out: MIC): 0.25 mg/L (≈ 0.525 µM) | MIC ([3]; Staphylococcus aureus, MRSA, S. aureus IHMA 1591462, MRSA / VSSA, read-out: MIC): 0.12 mg/L (≈ 0.252 µM) | MIC ([3]; Staphylococcus aureus, MRSA, S. aureus IHMA 1592755, MRSA / VSSA, read-out: MIC): 0.5 mg/L (≈ 1.05 µM)
